Data taken from PubChem BioAssay AID248 (DTP/NCI, 2004).
Values joined by “and” are separate entries in the source; they are usually repeats but may differ in a detail not shown here. Equal entries are not always repeated. Inconclusive results and toxic doses are left out. Rule as the data show it: active = T/C of 150% or more; inactive = T/C below 125%.

System: L1210 leukemia ip in BDF1 mice, survival T/C
Experiment: NCI In Vivo Anticancer Drug Screen. Data for tumor model L1210 Leukemia (intraperitoneal) in B6D2F1 (BDF1) mice
Conditions: endpoint: mean survival time, higher = longer survival
In short: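 Each compound was tested against a transplantable tumor grown in mice. The endpoint was survival, with treated animals benchmarked against vehicle controls as a simple ratio.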

[1] = dose: 100.0 mg/kg/injection, schedule: Q01DX009 (ip), vehicle: saline with Tween-80
[2] = dose: 200.0 mg/kg/injection, schedule: Q01DX009 (ip), vehicle: saline with Tween-80
[3] = dose: 400.0 mg/kg/injection, schedule: Q01DX009 (ip), vehicle: saline with Tween-80
[4] = dose: 100.0 mg/kg/injection, schedule: Q01DX009 (ip), vehicle: Klucel (hydroxypropylcellulose) (HPC)
[5] = dose: 200.0 mg/kg/injection, schedule: Q01DX009 (ip), vehicle: Klucel (hydroxypropylcellulose) (HPC)
[6] = dose: 100.0 mg/kg/injection, schedule: Q04DX003 (ip), vehicle: saline with Tween-80
[7] = dose: 200.0 mg/kg/injection, schedule: Q04DX003 (ip), vehicle: saline with Tween-80
[8] = dose: 50.0 mg/kg/injection, schedule: Q01DX009 (ip), vehicle: saline with Tween-80
[9] = dose: 100.0 mg/kg/injection, schedule: Q04DX002 (ip), vehicle: Klucel (hydroxypropylcellulose) (HPC)
[10] = dose: 200.0 mg/kg/injection, schedule: Q04DX002 (ip), vehicle: Klucel (hydroxypropylcellulose) (HPC)
[11] = dose: 400.0 mg/kg/injection, schedule: Q04DX002 (ip), vehicle: Klucel (hydroxypropylcellulose) (HPC)

Measured: T/C

NC(=S)N/N=C/c1ccc(O)c(C(=O)O)c1
inactive: dose: 15.0 mg/kg/injection, schedule: Q01DX Z (ip), vehicle: methylcellulose (MC) 97 % of control | dose: 30.0 mg/kg/injection, schedule: Q01DX Z (ip), vehicle: methylcellulose (MC) 95 % of control | dose: 60.0 mg/kg/injection, schedule: Q01DX Z (ip), vehicle: methylcellulose (MC) 95 % of control | dose: 120.0 mg/kg/injection, schedule: Q01DX Z (ip), vehicle: methylcellulose (MC) 97 % of control | dose: 250.0 mg/kg/injection, schedule: Q01DX Z (ip), vehicle: methylcellulose (MC) 91 % of control | dose: 375.0 mg/kg/injection, schedule: Q01DX Z (ip), vehicle: methylcellulose (MC) 89 % of control

c1ccc2cc(B(c3cccc4ccccc34)c3cccc4ccccc34)ccc2c1
inactive: dose: 12.5 mg/kg/injection, schedule: Q04DX002 (ip), vehicle: saline with Tween-80 102 % of control | dose: 25.0 mg/kg/injection, schedule: Q04DX002 (ip), vehicle: saline with Tween-80 94 % of control | dose: 50.0 mg/kg/injection, schedule: Q04DX002 (ip), vehicle: saline with Tween-80 105 % of control

COc1ccc(C(=O)CC(C#N)c2ccc(OC)c(OC)c2)cc1OC (stereo not drawn)
inactive: [1] 100 % of control | [2] 96 % of control | [3] 100 % of control

O=c1[nH]c(=O)c2[nH]c(N=Nc3ccc(S(=O)(=O)N(CCCl)CCCl)cc3)nc2[nH]1
inactive: dose: 50.0 mg/kg/injection, schedule: Q01DX009 (ip), vehicle: Klucel (hydroxypropylcellulose) (HPC) 97 % of control | [4] 92 % of control | [5] 94 % of control

O=C1C(Cl)=C(Nc2ccccc2)C(=O)C(Cl)=C1Nc1ccccc1
inactive: [1] 87 % of control | [6] 88 % of control | [2] 87 % of control | [7] 92 % of control | [3] 94 % of control | dose: 400.0 mg/kg/injection, schedule: Q04DX003 (ip), vehicle: saline with Tween-80 95 % of control

CNc1ccc(S(=O)(=O)c2ccc(NC)c([N+](=O)[O-])c2)cc1[N+](=O)[O-]
inactive: dose: 100.0 mg/kg/injection, schedule: Q01DX005 (ip), vehicle: gum acacia 93 % of control | dose: 100.0 mg/kg/injection, schedule: Q01DX009 (ip), vehicle: gum acacia 94 % of control | dose: 200.0 mg/kg/injection, schedule: Q01DX005 (ip), vehicle: gum acacia 93 % of control | dose: 200.0 mg/kg/injection, schedule: Q01DX009 (ip), vehicle: gum acacia 87 % of control | dose: 400.0 mg/kg/injection, schedule: Q01DX005 (ip), vehicle: gum acacia 96 % of control | dose: 400.0 mg/kg/injection, schedule: Q01DX009 (ip), vehicle: gum acacia 90 % of control

COC(=O)CCC(C)C1CCC2C3C(OC(C)=O)CC4CC(O)CCC4(C)C3CC(O)C12C (stereo not drawn)
inactive: dose: 100.0 mg/kg/injection, schedule: Q01DX009 (ip), vehicle: carboxymethylcellulose (CMC) 93 % of control and 107 % of control | dose: 100.0 mg/kg/injection, schedule: Q04DX002 (ip), vehicle: carboxymethylcellulose (CMC) 93 % of control and 97 % of control | dose: 100.0 mg/kg/injection, schedule: Q04DX003 (ip), vehicle: carboxymethylcellulose (CMC) 104 % of control | dose: 200.0 mg/kg/injection, schedule: Q01DX009 (ip), vehicle: carboxymethylcellulose (CMC) 91 % of control and 92 % of control | dose: 200.0 mg/kg/injection, schedule: Q04DX002 (ip), vehicle: carboxymethylcellulose (CMC) 97 % of control and 98 % of control | dose: 200.0 mg/kg/injection, schedule: Q04DX003 (ip), vehicle: carboxymethylcellulose (CMC) 97 % of control | dose: 400.0 mg/kg/injection, schedule: Q01DX009 (ip), vehicle: carboxymethylcellulose (CMC) 94 % of control and 88 % of control | dose: 400.0 mg/kg/injection, schedule: Q04DX002 (ip), vehicle: carboxymethylcellulose (CMC) 97 % of control | dose: 400.0 mg/kg/injection, schedule: Q04DX003 (ip), vehicle: carboxymethylcellulose (CMC) 95 % of control

CO[Si](C)(C)C
inactive: dose: 100.0 mg/kg/injection, schedule: Q01DX001 (ip), vehicle: saline 98 % of control | dose: 200.0 mg/kg/injection, schedule: Q01DX001 (ip), vehicle: saline 98 % of control | dose: 400.0 mg/kg/injection, schedule: Q01DX001 (ip), vehicle: saline 100 % of control

CCOC(=O)CC(=O)c1ccc(C(=O)CC(=O)O)cc1 (tested in a mixture with another compound)
inactive: dose: 25.6 mg/kg/injection, schedule: Q04DX002 (ip), vehicle: saline with Tween-80 87 % of control | [8] 89 % of control | dose: 64.0 mg/kg/injection, schedule: Q04DX002 (ip), vehicle: saline with Tween-80 95 % of control | [1] 96 % of control | [6] 90 % of control | dose: 160.0 mg/kg/injection, schedule: Q04DX002 (ip), vehicle: saline with Tween-80 91 % of control | [2] 88 % of control | [7] 87 % of control | dose: 400.0 mg/kg/injection, schedule: Q04DX002 (ip), vehicle: saline with Tween-80 87 % of control

O=C(NNc1ccccc1)NC1OCC(O)C(O)C1O (stereo not drawn)
inactive: dose: 100.0 mg/kg/injection, schedule: Q01DX009 (ip), vehicle: saline 92 % of control | dose: 100.0 mg/kg/injection, schedule: Q04DX003 (ip), vehicle: water 97 % of control | dose: 200.0 mg/kg/injection, schedule: Q01DX009 (ip), vehicle: saline 92 % of control | dose: 200.0 mg/kg/injection, schedule: Q04DX003 (ip), vehicle: water 97 % of control | dose: 400.0 mg/kg/injection, schedule: Q01DX009 (ip), vehicle: saline 93 % of control | dose: 400.0 mg/kg/injection, schedule: Q04DX003 (ip), vehicle: water 97 % of control

N#Cc1ccccc1C(Cl)(Cl)Cl
inactive: [9] 100 % of control | [10] 106 % of control | [11] 100 % of control

C=CCC1(C(C)C=C)C(=O)NC(=O)NC1=O (stereo not drawn)
inactive: dose: 75.0 mg/kg/injection, schedule: Q01DX001 (ip), vehicle: carboxymethylcellulose (CMC) 98 % of control | dose: 150.0 mg/kg/injection, schedule: Q01DX001 (ip), vehicle: carboxymethylcellulose (CMC) 91 % of control | dose: 300.0 mg/kg/injection, schedule: Q01DX001 (ip), vehicle: carboxymethylcellulose (CMC) 96 % of control

NC(N)=N/N=C/c1cccs1
inactive: dose: 15.0 mg/kg/injection, schedule: Q01DX Z (oral), vehicle: saline 90 % of control | dose: 30.0 mg/kg/injection, schedule: Q01DX Z (ip), vehicle: saline 90 % of control | dose: 30.0 mg/kg/injection, schedule: Q01DX Z (oral), vehicle: saline 92 % of control | dose: 60.0 mg/kg/injection, schedule: Q01DX Z (oral), vehicle: saline 92 % of control

CCC(=O)Nc1cc(C)c(C)cc1C
inactive: [4] 100 % of control | [5] 105 % of control

Cc1ccc([N+](=O)[O-])cc1P(=O)(O)c1cc([N+](=O)[O-])ccc1C
inactive: dose: 100.0 mg/kg/injection, schedule: Q01DX001 (ip), vehicle: acetone 94 % of control | dose: 100.0 mg/kg/injection, schedule: Q04DX003 (ip), vehicle: acetone 103 % of control | dose: 200.0 mg/kg/injection, schedule: Q01DX001 (ip), vehicle: acetone 94 % of control | dose: 200.0 mg/kg/injection, schedule: Q04DX003 (ip), vehicle: acetone 92 % of control | dose: 400.0 mg/kg/injection, schedule: Q01DX001 (ip), vehicle: acetone 93 % of control | dose: 400.0 mg/kg/injection, schedule: Q04DX003 (ip), vehicle: acetone 100 % of control

O=S(=O)([O-])O.O=S(O)S(=O)O.[Co+3].[NH2-].[NH2-].[NH2-].[NH2-].[NH2-]
inactive: dose: 25.0 mg/kg/injection, schedule: Q04DX002 (ip), vehicle: saline 91 % of control | dose: 50.0 mg/kg/injection, schedule: Q04DX002 (ip), vehicle: saline 97 % of control

O=C1C=C(c2ccccc2)C(=O)O1
inactive: [9] 95 % of control | [10] 92 % of control | [11] 90 % of control

CN(C)C(=S)SCNC(=S)NCSC(=S)N(C)C
inactive: dose: 100.0 mg/kg/injection, schedule: Q04DX003 (ip), vehicle: Klucel (hydroxypropylcellulose) (HPC) 106 % of control | dose: 200.0 mg/kg/injection, schedule: Q04DX003 (ip), vehicle: Klucel (hydroxypropylcellulose) (HPC) 96 % of control | dose: 400.0 mg/kg/injection, schedule: Q04DX003 (ip), vehicle: Klucel (hydroxypropylcellulose) (HPC) 98 % of control

CCOC(=O)C(C#N)C1c2ccccc2Nc2ccccc21 (stereo not drawn)
inactive: [8] 98 % of control | [1] 95 % of control | [2] 91 % of control
